Reference: US20240246942A1, “KINASE INHIBITORS FOR THE TREATMENT OF NEURODEGENERATIVE DISEASES” (priority 2020, published 2024)

Key:
Assay in all cases: biochemical
[1] = biological target: T1, panel of 374 wild-type kinases (Homo sapiens, UniProt P21709); details: read-out: % Enzyme Activity (relative to DMSO controls), EPHA1
T1 construct: purchased Reaction Biology Corporation
T1 sequence (P21709 26-976): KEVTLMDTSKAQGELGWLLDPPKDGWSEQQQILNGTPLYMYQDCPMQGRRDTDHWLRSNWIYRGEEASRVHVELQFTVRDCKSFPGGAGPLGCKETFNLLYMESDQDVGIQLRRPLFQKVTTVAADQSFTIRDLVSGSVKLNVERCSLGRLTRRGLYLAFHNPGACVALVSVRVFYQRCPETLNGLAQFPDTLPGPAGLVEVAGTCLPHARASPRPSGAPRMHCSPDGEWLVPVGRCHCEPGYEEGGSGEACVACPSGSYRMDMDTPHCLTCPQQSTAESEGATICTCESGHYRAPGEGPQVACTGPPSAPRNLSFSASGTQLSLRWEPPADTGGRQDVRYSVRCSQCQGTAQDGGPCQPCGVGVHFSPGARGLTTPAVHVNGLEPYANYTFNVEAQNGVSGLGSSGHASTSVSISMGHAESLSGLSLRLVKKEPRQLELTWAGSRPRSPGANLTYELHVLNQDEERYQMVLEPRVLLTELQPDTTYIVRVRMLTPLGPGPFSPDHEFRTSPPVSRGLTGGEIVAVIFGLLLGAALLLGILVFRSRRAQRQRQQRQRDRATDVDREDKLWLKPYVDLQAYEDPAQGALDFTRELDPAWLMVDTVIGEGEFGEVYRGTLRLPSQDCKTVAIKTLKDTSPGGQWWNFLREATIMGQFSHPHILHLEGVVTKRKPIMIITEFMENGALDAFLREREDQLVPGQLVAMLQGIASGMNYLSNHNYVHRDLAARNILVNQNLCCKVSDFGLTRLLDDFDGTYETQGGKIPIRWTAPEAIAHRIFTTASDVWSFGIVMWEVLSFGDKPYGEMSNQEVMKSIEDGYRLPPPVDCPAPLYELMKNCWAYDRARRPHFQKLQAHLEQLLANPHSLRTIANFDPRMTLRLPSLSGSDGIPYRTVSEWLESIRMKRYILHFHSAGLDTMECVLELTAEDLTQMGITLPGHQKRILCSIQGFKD

[2] = biological target: T2, panel of 374 wild-type kinases (Homo sapiens, UniProt P29317); details: read-out: % Enzyme Activity (relative to DMSO controls), EPHA2
T2 construct: purchased Reaction Biology Corporation
T2 sequence (P29317 24-976): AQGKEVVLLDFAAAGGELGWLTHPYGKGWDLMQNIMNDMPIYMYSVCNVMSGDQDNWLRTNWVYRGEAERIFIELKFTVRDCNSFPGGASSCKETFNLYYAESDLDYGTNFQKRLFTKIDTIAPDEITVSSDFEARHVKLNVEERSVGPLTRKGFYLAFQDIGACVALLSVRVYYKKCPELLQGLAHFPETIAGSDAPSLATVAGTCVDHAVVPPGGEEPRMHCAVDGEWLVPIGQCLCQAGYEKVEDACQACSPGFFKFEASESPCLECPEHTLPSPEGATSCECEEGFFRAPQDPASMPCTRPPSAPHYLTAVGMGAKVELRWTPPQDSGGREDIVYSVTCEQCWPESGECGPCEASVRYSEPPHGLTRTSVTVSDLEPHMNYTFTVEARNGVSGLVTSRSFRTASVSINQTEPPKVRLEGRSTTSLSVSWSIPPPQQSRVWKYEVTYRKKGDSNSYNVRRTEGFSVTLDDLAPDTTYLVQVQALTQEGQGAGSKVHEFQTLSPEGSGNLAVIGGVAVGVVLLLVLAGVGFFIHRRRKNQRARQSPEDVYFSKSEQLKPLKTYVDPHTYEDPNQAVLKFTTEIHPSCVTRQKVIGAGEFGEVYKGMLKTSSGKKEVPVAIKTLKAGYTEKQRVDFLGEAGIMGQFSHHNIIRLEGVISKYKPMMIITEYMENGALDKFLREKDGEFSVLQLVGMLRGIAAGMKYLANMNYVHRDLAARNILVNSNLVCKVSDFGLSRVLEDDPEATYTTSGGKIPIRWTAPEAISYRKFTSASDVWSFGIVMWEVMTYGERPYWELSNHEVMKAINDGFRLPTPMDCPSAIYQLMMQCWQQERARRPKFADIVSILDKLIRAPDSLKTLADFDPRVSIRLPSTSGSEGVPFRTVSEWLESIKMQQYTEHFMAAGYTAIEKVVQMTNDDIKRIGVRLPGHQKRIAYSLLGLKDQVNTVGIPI

[3] = biological target: T3, panel of 374 wild-type kinases (Homo sapiens, UniProt Q06187); details: read-out: % Enzyme Activity (relative to DMSO controls), BTK
T3 construct: purchased Reaction Biology Corporation
T3 sequence (Q06187 whole entry): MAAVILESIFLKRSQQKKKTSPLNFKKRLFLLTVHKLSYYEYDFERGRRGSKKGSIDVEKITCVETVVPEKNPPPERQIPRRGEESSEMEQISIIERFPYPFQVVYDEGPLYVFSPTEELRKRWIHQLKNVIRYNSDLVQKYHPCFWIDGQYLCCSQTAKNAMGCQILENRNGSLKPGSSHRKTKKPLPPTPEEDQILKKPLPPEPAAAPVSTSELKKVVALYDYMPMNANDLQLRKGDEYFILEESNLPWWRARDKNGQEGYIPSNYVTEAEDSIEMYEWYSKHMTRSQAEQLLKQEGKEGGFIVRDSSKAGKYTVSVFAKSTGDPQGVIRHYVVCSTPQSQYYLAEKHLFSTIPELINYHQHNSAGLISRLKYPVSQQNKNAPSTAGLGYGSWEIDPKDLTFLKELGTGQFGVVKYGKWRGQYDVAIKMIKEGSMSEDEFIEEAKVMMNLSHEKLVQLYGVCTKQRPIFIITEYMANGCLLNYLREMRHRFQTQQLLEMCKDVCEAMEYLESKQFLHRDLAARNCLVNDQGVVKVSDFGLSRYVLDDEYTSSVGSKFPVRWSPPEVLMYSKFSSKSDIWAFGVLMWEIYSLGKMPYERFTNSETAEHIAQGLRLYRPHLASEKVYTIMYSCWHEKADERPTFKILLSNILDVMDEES

[4] = biological target: T4, panel of 374 wild-type kinases (Homo sapiens, UniProt Q13470); details: read-out: % Enzyme Activity (relative to DMSO controls), kinase TNK1
T4 construct: purchased Reaction Biology Corporation
T4 sequence (Q13470 1-666): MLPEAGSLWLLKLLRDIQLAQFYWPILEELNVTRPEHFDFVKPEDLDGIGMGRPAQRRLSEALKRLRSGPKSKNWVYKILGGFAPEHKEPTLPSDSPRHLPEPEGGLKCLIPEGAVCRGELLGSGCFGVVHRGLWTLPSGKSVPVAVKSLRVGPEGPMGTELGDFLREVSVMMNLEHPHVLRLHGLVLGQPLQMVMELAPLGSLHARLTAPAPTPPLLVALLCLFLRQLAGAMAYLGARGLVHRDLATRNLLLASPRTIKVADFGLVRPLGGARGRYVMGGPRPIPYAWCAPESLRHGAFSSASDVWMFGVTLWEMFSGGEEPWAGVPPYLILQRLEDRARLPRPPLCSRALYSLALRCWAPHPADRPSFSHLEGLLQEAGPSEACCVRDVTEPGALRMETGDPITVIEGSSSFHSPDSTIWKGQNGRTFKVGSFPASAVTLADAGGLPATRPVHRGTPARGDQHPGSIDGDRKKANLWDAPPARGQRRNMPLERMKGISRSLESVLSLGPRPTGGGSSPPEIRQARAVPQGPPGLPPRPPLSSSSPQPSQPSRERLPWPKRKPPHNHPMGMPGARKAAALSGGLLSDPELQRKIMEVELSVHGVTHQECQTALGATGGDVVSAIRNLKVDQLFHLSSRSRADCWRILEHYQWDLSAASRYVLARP

[5] = biological target: T5, panel of 374 wild-type kinases (Homo sapiens, UniProt Q86Y07); details: read-out: % Enzyme Activity (relative to DMSO controls), kinase VRK2
T5 construct: purchased Reaction Biology Corporation
T5 sequence (Q86Y07 whole entry): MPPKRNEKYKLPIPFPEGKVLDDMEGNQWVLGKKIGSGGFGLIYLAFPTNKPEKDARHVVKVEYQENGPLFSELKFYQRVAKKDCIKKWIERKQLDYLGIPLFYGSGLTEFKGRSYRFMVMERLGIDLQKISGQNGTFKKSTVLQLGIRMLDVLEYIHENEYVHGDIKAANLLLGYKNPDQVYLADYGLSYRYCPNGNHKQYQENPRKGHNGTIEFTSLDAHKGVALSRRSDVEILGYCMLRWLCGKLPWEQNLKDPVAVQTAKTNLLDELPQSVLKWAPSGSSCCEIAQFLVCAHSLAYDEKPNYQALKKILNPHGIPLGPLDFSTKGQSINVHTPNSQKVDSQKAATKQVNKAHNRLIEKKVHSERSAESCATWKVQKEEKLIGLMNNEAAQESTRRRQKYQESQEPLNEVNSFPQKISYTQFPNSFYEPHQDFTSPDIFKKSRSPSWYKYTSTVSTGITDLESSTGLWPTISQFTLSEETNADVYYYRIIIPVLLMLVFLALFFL

[6] = biological target: T6, panel of 374 wild-type kinases (Homo sapiens, UniProt Q8NG66); details: read-out: % Enzyme Activity (relative to DMSO controls), NEK11
T6 construct: purchased Reaction Biology Corporation
T6 sequence (Q8NG66 1-645): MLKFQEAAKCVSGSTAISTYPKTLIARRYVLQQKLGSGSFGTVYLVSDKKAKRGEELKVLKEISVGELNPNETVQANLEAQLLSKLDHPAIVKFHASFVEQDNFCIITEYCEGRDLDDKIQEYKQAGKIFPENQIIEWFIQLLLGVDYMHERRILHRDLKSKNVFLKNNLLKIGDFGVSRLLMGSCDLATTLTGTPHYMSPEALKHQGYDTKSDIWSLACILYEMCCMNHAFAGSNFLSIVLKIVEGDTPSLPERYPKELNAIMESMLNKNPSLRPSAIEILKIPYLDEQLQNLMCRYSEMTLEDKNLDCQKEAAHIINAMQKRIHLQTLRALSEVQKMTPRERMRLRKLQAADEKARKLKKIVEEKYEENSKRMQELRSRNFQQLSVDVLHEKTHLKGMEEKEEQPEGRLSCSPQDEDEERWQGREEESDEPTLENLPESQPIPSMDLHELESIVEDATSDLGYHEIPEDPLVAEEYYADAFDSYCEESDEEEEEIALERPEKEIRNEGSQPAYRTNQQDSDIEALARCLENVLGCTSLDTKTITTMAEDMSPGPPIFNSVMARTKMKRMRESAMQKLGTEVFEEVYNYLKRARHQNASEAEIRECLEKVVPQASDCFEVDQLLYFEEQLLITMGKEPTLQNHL

[7] = biological target: T7, panel of 374 wild-type kinases (Homo sapiens, UniProt Q9Y2H1); details: read-out: % Enzyme Activity (relative to DMSO controls), kinase STK38L/NDR2
T7 construct: purchased Reaction Biology Corporation
T7 sequence (Q9Y2H1 whole entry): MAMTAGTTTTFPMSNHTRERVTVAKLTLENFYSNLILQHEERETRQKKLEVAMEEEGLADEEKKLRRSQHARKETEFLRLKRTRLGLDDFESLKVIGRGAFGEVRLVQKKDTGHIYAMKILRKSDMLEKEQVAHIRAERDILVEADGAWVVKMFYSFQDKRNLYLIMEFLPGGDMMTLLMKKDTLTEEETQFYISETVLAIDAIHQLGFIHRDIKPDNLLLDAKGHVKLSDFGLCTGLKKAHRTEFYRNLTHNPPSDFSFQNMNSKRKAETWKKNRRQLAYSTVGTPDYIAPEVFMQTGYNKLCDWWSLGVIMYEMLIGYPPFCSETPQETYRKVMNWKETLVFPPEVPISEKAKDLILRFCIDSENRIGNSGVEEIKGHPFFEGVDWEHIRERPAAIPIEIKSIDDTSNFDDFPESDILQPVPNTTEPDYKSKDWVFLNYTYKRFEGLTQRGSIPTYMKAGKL

| Structure (SMILES) | remaining activity at 5 µM [1] [%] | remaining activity at 5 µM [2] [%] | remaining activity at 5 µM [3] [%] | remaining activity at 5 µM [4] [%] | remaining activity at 5 µM [5] [%] | remaining activity at 5 µM [6] [%] | remaining activity at 5 µM [7] [%] | remaining activity at 10 µM ([1]; 10 uM) [%] | remaining activity at 10 µM ([2]; 10 uM) [%] | remaining activity at 10 µM ([3]; 10 uM) [%] | remaining activity at 10 µM ([4]; 10 uM) [%] | remaining activity at 10 µM ([5]; 10 uM) [%] | remaining activity at 10 µM ([6]; 10 uM) [%] | remaining activity at 10 µM ([7]; 10 uM) [%] |
| --- | --- | --- | --- | --- | --- | --- | --- | --- | --- | --- | --- | --- | --- | --- |
| O=C(Nc1cnn(-c2csc(C(=O)NC3COC3)c2)c1)Nc1ccccc1Cl [Compound 17, 4-(4-(3-(2-chlorophenyl)ureido)-1H-pyrazol-1-yl)-N-(oxetan-3-yl)thiophene-2-carboxamide] | 99.1 | 101 | 92.6 | 100 | 103 | 145 | 103 | – | – | – | – | – | – | – |
| Cc1sc(C(=O)NC2COC2)cc1-n1cc(NC(=O)Nc2c(F)cccc2Cl)cn1 [Compound 27, 4-(4-(3-(2-chloro-6-fluorophenyl)ureido)-1H-pyrazol-1-yl)-5-methyl-N-(oxetan-3-yl)thiophene-2-carboxamide] | – | – | – | – | – | – | – | 88.5 | 102 | 87.6 | 105 | 102 | 70 | 95.1 |
| O=C(Nc1cnn(-c2csc(C(=O)NC3COC3)c2)c1)Nc1c(F)cccc1Cl [Compound 25, 4-(4-(3-(2-chloro-6-fluorophenyl)ureido)-1H-pyrazol-1-yl)-N-(oxetan-3-yl)thiophene-2-carboxamide] | 88.4 | 97.9 | 89.3 | 91.5 | 102 | 89.5 | 94.8 | – | – | – | – | – | – | – |
